Laboratory results as given in ChEMBL document CHEMBL4725377, “The neuronal calcium ion channel activity of constrained analogues of MONIRO-1” (Bioorg Med Chem, 2020).

How the values were obtained:
[1] = target: T1, Voltage-dependent N-type calcium channel subunit alpha-1B (Homo sapiens, UniProt Q00975); assay: Inhibition of human N type calcium channel Cav2.2 endogenously expressed in SH-SY5Y cells assessed as calcium influx by FRIPR assay; format: cell-based
[2] = target: Voltage-dependent T-type calcium channel subunit alpha-1H (Homo sapiens, UniProt O95180); assay: Inhibition of human T type calcium channel Cav3.2 expressed in HEK-293T cells assessed as calcium influx by FRIPR assay; format: cell-based
[3] = Stability of the compound in Sprague-Dawley rat plasma assessed as half-life measured by RP-HPLC; format: ADME, cell-free
[4] = target: T1, Voltage-dependent N-type calcium channel subunit alpha-1B; assay: Inhibition of human Cav2.2 expressed in HEK293 cells by whole cell patch clamp electrophysiology method; format: cell-based
[5] = Inhibition of human Cav3 expressed in HEK293 cells by whole cell patch clamp electrophysiology method; format: cell-based

T1 sequence (Q00975 whole entry): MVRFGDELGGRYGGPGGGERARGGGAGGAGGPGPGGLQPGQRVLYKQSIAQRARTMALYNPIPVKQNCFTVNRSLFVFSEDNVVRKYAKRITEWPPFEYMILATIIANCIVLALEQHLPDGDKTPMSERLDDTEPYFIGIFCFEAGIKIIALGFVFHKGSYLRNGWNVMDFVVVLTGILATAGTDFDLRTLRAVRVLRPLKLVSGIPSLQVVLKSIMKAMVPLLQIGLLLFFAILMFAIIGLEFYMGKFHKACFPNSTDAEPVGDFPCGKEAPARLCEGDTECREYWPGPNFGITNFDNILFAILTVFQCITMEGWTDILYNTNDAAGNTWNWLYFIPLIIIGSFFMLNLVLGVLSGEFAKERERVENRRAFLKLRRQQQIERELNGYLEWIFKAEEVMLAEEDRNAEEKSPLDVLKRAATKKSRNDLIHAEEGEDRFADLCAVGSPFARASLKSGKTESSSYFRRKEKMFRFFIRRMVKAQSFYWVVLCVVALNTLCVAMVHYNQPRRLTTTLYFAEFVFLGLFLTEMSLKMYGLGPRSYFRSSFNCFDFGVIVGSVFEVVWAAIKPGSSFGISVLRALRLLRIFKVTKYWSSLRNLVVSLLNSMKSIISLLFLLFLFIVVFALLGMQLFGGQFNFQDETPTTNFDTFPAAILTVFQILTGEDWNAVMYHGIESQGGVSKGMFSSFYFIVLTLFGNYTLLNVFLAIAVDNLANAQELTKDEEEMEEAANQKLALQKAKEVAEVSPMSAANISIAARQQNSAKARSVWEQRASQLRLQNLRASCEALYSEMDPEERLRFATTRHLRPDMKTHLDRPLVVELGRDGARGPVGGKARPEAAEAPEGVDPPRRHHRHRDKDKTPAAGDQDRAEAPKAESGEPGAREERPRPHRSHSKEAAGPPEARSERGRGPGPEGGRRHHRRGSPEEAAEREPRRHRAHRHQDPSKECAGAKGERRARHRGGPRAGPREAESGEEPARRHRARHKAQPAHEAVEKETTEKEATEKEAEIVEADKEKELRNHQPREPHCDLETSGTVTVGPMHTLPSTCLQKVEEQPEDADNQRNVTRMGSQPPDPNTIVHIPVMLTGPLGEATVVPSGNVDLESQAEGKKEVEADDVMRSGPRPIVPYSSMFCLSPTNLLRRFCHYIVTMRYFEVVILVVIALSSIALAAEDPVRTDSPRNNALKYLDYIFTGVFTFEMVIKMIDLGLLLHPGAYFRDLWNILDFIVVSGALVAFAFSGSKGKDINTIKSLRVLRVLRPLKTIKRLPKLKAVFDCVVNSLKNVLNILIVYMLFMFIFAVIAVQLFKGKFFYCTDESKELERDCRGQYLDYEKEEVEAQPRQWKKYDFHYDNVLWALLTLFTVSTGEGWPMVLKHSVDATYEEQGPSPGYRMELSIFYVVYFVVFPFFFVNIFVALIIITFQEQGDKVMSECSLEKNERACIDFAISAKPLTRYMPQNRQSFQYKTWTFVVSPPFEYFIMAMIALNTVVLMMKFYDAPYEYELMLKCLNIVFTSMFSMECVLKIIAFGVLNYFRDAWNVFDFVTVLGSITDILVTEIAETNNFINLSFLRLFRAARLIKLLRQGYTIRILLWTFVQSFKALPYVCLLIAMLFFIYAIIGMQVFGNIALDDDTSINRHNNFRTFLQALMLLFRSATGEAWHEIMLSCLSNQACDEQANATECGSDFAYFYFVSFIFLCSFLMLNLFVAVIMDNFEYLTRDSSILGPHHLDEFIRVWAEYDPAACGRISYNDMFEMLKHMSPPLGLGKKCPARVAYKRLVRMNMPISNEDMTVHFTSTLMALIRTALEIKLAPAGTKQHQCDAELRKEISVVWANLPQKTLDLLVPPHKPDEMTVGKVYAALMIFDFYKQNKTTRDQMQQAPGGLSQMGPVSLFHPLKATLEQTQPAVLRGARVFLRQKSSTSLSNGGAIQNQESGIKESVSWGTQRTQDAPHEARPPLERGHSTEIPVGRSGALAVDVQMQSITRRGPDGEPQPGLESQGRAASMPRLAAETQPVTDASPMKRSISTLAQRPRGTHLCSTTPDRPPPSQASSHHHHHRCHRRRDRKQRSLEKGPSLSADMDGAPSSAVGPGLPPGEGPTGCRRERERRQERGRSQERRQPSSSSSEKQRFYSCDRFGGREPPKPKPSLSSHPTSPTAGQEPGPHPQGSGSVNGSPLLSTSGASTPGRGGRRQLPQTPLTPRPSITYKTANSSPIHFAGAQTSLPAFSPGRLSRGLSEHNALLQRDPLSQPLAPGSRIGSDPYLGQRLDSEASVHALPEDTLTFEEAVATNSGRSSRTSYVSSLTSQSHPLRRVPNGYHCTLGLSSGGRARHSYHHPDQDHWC
Sequence of Voltage-dependent T-type calcium channel subunit alpha-1H (O95180 whole entry): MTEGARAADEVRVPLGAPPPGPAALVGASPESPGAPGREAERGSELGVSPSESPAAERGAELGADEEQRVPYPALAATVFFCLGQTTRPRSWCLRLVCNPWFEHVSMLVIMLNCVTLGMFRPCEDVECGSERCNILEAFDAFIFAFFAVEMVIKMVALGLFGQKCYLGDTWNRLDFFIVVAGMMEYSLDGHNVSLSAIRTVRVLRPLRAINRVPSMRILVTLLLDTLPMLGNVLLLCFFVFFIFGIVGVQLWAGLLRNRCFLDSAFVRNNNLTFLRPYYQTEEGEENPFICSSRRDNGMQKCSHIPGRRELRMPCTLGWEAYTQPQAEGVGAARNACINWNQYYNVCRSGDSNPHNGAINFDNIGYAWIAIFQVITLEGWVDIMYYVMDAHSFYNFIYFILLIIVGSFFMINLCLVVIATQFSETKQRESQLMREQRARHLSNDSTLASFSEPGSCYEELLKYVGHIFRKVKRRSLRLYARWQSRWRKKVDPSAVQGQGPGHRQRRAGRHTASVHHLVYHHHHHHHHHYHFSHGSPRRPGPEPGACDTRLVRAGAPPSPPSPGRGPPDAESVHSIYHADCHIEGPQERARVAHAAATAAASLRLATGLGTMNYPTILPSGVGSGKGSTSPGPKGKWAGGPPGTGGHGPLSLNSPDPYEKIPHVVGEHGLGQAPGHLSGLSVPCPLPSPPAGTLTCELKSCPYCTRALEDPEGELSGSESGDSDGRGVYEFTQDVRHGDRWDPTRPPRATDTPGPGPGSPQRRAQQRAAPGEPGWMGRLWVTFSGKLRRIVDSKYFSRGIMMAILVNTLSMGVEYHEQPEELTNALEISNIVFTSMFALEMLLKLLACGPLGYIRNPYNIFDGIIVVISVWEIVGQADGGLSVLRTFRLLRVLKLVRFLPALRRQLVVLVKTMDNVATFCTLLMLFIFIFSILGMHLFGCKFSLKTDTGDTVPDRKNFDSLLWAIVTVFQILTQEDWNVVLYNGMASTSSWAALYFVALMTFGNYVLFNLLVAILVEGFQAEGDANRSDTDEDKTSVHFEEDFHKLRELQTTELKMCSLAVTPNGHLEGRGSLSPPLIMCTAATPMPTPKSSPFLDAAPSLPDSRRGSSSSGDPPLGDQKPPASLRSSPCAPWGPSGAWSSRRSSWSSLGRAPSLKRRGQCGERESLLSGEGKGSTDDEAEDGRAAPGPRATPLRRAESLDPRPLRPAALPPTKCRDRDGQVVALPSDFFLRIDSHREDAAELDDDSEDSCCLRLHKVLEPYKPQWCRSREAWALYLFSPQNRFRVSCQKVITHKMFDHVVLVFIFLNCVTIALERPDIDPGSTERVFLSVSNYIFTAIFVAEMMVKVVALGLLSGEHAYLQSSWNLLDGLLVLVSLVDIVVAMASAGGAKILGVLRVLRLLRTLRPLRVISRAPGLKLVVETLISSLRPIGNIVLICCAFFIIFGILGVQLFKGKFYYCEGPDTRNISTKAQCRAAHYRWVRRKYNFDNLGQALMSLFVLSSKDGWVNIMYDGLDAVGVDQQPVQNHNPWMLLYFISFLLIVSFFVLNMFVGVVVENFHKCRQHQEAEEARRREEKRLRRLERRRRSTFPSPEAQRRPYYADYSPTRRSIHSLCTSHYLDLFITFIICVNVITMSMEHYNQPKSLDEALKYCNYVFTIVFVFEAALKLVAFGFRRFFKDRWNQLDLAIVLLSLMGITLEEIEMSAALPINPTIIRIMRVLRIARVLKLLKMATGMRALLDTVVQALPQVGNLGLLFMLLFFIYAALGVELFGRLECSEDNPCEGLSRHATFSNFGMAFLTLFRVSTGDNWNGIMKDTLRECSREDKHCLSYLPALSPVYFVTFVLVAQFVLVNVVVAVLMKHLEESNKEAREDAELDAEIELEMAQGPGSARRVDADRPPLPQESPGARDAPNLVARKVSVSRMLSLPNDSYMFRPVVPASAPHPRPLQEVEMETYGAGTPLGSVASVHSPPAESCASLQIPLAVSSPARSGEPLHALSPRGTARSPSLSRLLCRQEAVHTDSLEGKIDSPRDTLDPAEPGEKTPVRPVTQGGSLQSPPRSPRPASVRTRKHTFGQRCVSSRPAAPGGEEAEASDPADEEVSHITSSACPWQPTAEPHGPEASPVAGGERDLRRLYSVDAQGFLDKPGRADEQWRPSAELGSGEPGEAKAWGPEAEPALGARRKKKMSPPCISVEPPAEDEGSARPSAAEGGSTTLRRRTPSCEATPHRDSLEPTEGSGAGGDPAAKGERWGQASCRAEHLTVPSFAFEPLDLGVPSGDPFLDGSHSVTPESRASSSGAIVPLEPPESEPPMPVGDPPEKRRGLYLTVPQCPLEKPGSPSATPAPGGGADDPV

| IC50 [1] | IC50 [2] | SMILES | further results |
| --- | --- | --- | --- |
| 49 µM | 19 µM | CN(C)CCCOc1ccc(C(=O)Nc2ccccc2Oc2ccccc2)cc1 |  |
| 62 µM | 55 µM | Cc1cccc(C)c1Oc1ccccc1NC(=O)c1ccc(OCCCN(C)C)cc1 |  |
| 185 µM |  | NC(N)=NCCCOc1ccc(C(=O)Nc2ccccc2Oc2ccc(F)cc2)cc1 | IC50 [4]: 34 µM; IC50 [5]: 2 µM |

Second part, the compound before the results:

| SMILES | IC50 [1] | IC50 [2] | further results |
| --- | --- | --- | --- |
| O=C(c1ccc(OCCCN2CCOCC2)cc1)N1c2ccccc2Oc2ccccc21 |  | 133 µM |  |
| O=C(c1ccc(OCCCN2CCCC2)cc1)N1c2ccccc2CCc2ccccc21 | 98 µM | 110 µM |  |
| O=C(c1ccc(OCCCN2CCCC2)cc1)N1c2ccccc2C=Cc2ccccc21 | 107 µM | 113 µM |  |
| O=C(c1ccc(OCCCN2CCOCC2)cc1)N1c2ccccc2C=Cc2ccccc21 | 259 µM | 193 µM |  |
| NC(N)=NCCCOc1ccc(C(=O)N2c3ccccc3Oc3ccccc32)cc1 |  | 164 µM |  |
| CN(C)CCCOc1ccc(C(=O)N2c3ccccc3C=Cc3ccccc32)cc1 |  |  | half-life [3]: > 60 h |
| CN(C)CCCOc1ccc(C(=O)N2c3ccccc3CCc3ccccc32)cc1 |  |  | half-life [3]: > 60 h |
| O=C(c1ccc(OCCCN2CCOCC2)cc1)N1c2ccccc2CCc2ccccc21 | 78 µM | 80 µM |  |
| O=C(c1ccc(OCCCN2CCCC2)cc1)N1c2ccccc2Oc2ccccc21 |  | 49 µM |  |
| COCCOC(=O)C1=C(C)NC(C)=C(C(=O)OC/C=C/c2ccccc2)C1c1cccc([N+](=O)[O-])c1 (configuration not stated) [CILNIDIPINE] | 26 µM | 24 µM |  |
